Laboratory results published in patent US20250195613A1, “COMPOSITIONS AND METHODS FOR REDUCING BIOFILM FORMATION” (Trustees of Tufts College, priority 2022, published 2025).
“Also recorded” adds a separate entry of the source.

Key:
Type in all cases: cell-based, Streptococcus mutans
S. mutans UA159 = test: Biofilm growth CFU assay (fraction biofilm and total growth); conditions: for fractional biofilm formation (cells in biofilm relative to whole population), in words / overall (total) growth of the bacterial population / toxicity to S. mutans: 5 h, TH25% with 1% sucrose; for fractional biofilm formation (cells in biofilm relative to whole population), in words: 96-well polystyrene plate; for overall (total) growth of the bacterial population / toxicity to S. mutans: biofilm CFU per ml + supernatant CFU per ml
Protocol: The bacterial strain S. mutans UA159 (ATCC, 700610) was originally isolated from a child with active cavities. Bacteria were cultivated in Bacto Todd-Hewitt broth (TH; BD, 249240) or brain-heart infusion (BHI; BD, 237500) 1.5% agar plates at 37° C. with 5% CO2. To promote biofilm formation, S. mutans was grown in 25% TH supplemented with 1% sucrose.
(§1) Overnight cultures of S. mutans UA159 were inoculated from glycerol stocks and grown for 12-18 h in 50% TH at 37° C. with 5% CO2. Biofilms were prepared by diluting overnight cultures 1:20 into 50-100 μl of media (TH25% with 1% sucrose) and any polymer solution in a 96-well polystyrene plate for a starting inoculum of 10^7-10^8 CFU per ml. The cultures were then incubated statically for 5 hours at 37° C. with 5% CO2.
To measure total growth and relative biofilm formation, the number of cells in the biofilm and in suspension were counted using a colony forming unit (CFU) assay as previously described. See Werlang, C. A. et al., “Mucin O-glycans suppress quorum-sensing pathways and genetic transformation in Streptococcus mutans,” Nat. Microbiol. 1-10 (2021) doi: 10.1038/s41564-021-00876-1, which is incorporated herein in its entirety by reference for all purposes. Briefly, the supernatant was removed and transferred to a new 96-well plate, the biofilm was washed twice with 100 μl of phosphate-buffered saline (PBS), and the washes were added to the supernatant. The biofilm was then detached and resuspended in 100 μl of PBS by vigorously scraping with a pipette tip for 30 s. Each culture fraction was then serially diluted and plated on BHI agar. Colonies were counted after 24 h growth at 37° C. with 5% CO2. The fraction biofilm was calculated as (biofilm CFU per ml)/(biofilm CFU per ml+supernatant CFU per ml). The total growth was calculated as biofilm CFU per ml+supernatant CFU per ml. All of the conditions had at least three biological replicates (individual data points shown on graphs).

S. mutans biofilms [1] = test: Total biofilm biomass by crystal violet staining; conditions: for total bacterial biomass incl. exopolysaccharides (crystal violet), in words: OD 580 nm
Protocol: as §1
Total biofilm biomass was measured using crystal violet staining. The supernatant was aspirated, and the biofilm was washed twice with 100 μl of PBS. Then 100 μl of 0.1% crystal violet was added to each well and incubated for 15 minutes at room temperature. The crystal violet solution was removed, and the stained biofilms were washed five times with 200 μl of distilled water. Finally, 100 μl of 30% acetic acid was added to each well to extract the absorbed crystal violet, and the OD was measured at 580 nm on a microtiter plate reader.

S. mutans = test: Polymer attachment assay (bacterial attachment to polymer coating); conditions: coatings from 2 mg per ml polymer on polystyrene, 1 hour at 37° C.
Protocol: Bacterial attachment to polymer coating was assayed as previously described. See Co, J. Y., Crouzier, T. & Ribbeck, K., “Probing the Role of Mucin-Bound Glycans in Bacterial Repulsion by Mucin Coatings,” Adv. Mater. Interfaces 2, 1500179 (2015), which is incorporated herein in its entirety by reference for all purposes. Briefly, coatings were prepared by incubating 100 μl of polymer solutions (2 mg per ml in Milli-Q purified water) on 96-well polystyrene plates for 2 h at 37° C., followed by three washes with 200 μl of sterile-filtered distilled water. Overnight cultures of S. mutans were centrifuged and resuspended in sterile PBS at an OD600 of 0.4, and 50 μl of the washed culture were added to each well. The bacteria were incubated on the coating for 1 hour at 37° C. To measure cell attachment, unattached bacteria were aspirated, wells were washed three times with 200 μl of PBS, and the remaining bacteria were detached with a pipette and resuspended in PBS before being quantified by a CFU assay.

S. mutans biofilms [2] = test: Confocal microscopy of SYTO9-stained biofilms; conditions: SYTO9 stain
Protocol: For confocal microscopy, S. mutans biofilms were prepared as described above on 96-well glass-bottom plates with 5 nM of SYTO9 green fluorescent nucleic acid stain (ThermoFisher, S34854) added to the cultures. Cultures were imaged on a confocal laser-scanning microscope (LSM 800; Zeiss) with a 63×/1.4 NA oil immersion objective with a step size of 0.5 μm. The excitation wavelength for SYTO9 was 488 nm. At least three stacks were recorded for each well, and at least three independent wells were analyzed for each condition. Images were analyzed with Zeiss ZEN 2.1 imaging software (Thornwood, NY, USA).

Molecule | fractional biofilm formation (cells in biofilm relative to whole population), in words (S. mutans UA159) | overall (total) growth of the bacterial population / toxicity to S. mutans (S. mutans UA159) | total bacterial biomass incl. exopolysaccharides (crystal violet), in words (S. mutans biofilms [1]) | biofilm fraction of culture (S. mutans UA159; 0.5% MUC5B mucin) [%] | reduction of biofilm biomass (S. mutans biofilms [1]; crystal violet staining) [%] | S. mutans binding to polymer coating (S. mutans) | S. mutans binding to polymer coating (S. mutans; listed as MUC5B mucin) | surface attachment / community structure by confocal microscopy (S. mutans biofilms [2]) | surface attachment / community structure by confocal microscopy (S. mutans biofilms [2]; listed as mucin)
CC(=O)N[C@H]1C(O)O[C@H](CO)[C@H](O)[C@@H]1O (stereo partly drawn) [Soluble GalNAc, N-acetyl galactosamine] | do not have a statistically significant impact | – | – | – | – | – | – | – | –
CC(=O)N[C@H]1[C@H]([C@H](O)[C@H](O)CO)OC(O)(C(=O)O)C[C@@H]1O (stereo partly drawn) [soluble NeuNAc, N-Acetylneuraminic acid] | small proportional reduction in the fraction of biofilm | toxic to S. mutans; also recorded: strong killing effect | reduction in total bacterial biomass | – | – | – | – | – | –
MUC5B: mucin purified by liquid chromatography from pooled human submandibular saliva | – | do not affect the overall growth | reduce the total bacterial biomass | 30 | 77 | do not strongly bind | did not bind | no longer attached to the surface | no longer attach to the surface
